Test results taken from patent US11739074B2, “Ras inhibitors” (Revolution Medicines, Inc., priority 2019, dated 2023).
Where two headings read alike, the source gives them in different places.

Key:
AsPC-1 (K-Ras G12D) [1] = assay: Potency assay: pERK in AsPC-1 cells; format: cell-based; conditions: Homo sapiens
AsPC-1 (K-Ras G12D) [2] = assay: CellTiter-Glo cell viability assay, AsPC-1; format: cell-based; conditions: Homo sapiens, ASPC1, 120 h
Summary of the method: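 Test compounds were dispensed directly onto seeded cells, and on day 5 plates were brought to room temperature for about 30 minutes before CellTiter-Glo luminescence was read. Signals were expressed as percent of the mean DMSO control and fitted with a four-parameter logistic model.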

[3] = ASPC1, AsPC-1 cells, K-Ras G12D, read-out: pERK EC50 (AsPC-1 KRAS G12D)
[4] = AsPC-1, K-Ras G12D, 5-day treatment, read-out: AsPC-1 Cell Viability IC50
[5] = ASPC1, read-out: pERK EC50 (AsPC-1 KRAS G12D)
[6] = read-out: AsPC-1 Cell Viability IC50, AsPC-1, K-Ras G12D, 5-day treatment

SMILES	EC50 (AsPC-1 (K-Ras G12D) [1]; [3])	IC50 (AsPC-1 (K-Ras G12D) [2]; [4])	EC50 (AsPC-1 (K-Ras G12D) [1]; [5])	IC50 (AsPC-1 (K-Ras G12D) [2]; [6])
CCn1c(-c2cccnc2[C@H](C)OC)c2c3cc(ccc31)-c1cc(O)cc(c1)C[C@H](NC(=O)[C@H](C(C)C)N(C)C(=O)[C@H]1CCN1C(=O)[C@H]1CN1)C(=O)N1CCC[C@H](N1)C(=O)OCC(C)(C)C2 [Compound 158]	< 5 µM	1 to 10 µM	–	–
CCn1c(-c2cccnc2[C@H](C)OC)c2c3cc(ccc31)-c1cc(O)cc(c1)C[C@H](NC(=O)[C@H](C(C)C)N(C)C(=O)CN(C)C(=O)[C@H]1CN1CCO)C(=O)N1CCC[C@H](N1)C(=O)OCC(C)(C)C2 (some centres unmarked) [Compound 161]	–	–	< 5 µM	1 to 10 µM
CCn1c(-c2cccnc2[C@H](C)OC)c2c3cc(ccc31)-c1cc(O)cc(c1)C[C@H](NC(=O)[C@H](C(C)C)N(C)C(=O)c1ncc(NC(=O)[C@H]3CN3)n1C)C(=O)N1CCC[C@H](N1)C(=O)OCC(C)(C)C2 [Compound 84]	< 5 µM	1 to 10 µM	–	–
CCn1c(-c2cccnc2[C@H](C)OC)c2c3cc(ccc31)-c1cc(O)cc(c1)C[C@H](NC(=O)[C@H](C(C)C)N(C)C(=O)[C@H]1C[C@@H]3N[C@@H]3C1)C(=O)N1CCC[C@H](N1)C(=O)OCC(C)(C)C2 [Compound 286]	< 5 µM	1 to 10 µM	–	–
CCn1c(-c2cccnc2[C@H](C)OC)c2c3cc(ccc31)-c1cc(O)cc(c1)C[C@H](NC(=O)[C@H](C(C)C)N(C)C(=O)CN(C)C(=O)[C@@H]1CN1CCO)C(=O)N1CCC[C@H](N1)C(=O)OCC(C)(C)C2 (some centres unmarked) [Compound 162]	–	–	< 5 µM	1 to 10 µM
CCn1c(-c2cccnc2[C@H](C)OC)c2c3cc(ccc31)-c1csc(n1)C[C@H](NC(=O)[C@H](C(C)C)N(C)C(=O)N(C)[C@H]1CCN(C(=O)[C@@H]3CN3)C1)C(=O)N1CCC[C@H](N1)C(=O)OCC(C)(C)C2 [Compound 310]	< 5 µM	1 to 10 µM	–	–
CCn1c(-c2cccnc2[C@H](C)OC)c2c3cc(ccc31)-c1cc(O)cc(c1)C[C@H](NC(=O)[C@H](C(C)C)N(C)C(=O)[C@@H]1CCCN(C(=O)[C@H]3CN3)C1)C(=O)N1CCC[C@H](N1)C(=O)OCC(C)(C)C2 [Compound 237]	< 5 µM	1 to 10 µM	–	–
CCn1c(-c2cccnc2[C@H](C)OC)c2c3cc(ccc31)-c1cc(O)cc(c1)C[C@H](NC(=O)[C@H](C(C)C)N(C)C(=O)C1CCN(C(=O)[C@H]3CN3)CC1)C(=O)N1CCC[C@H](N1)C(=O)OCC(C)(C)C2 [Compound 86]	< 5 µM	1 to 10 µM	–	–
CCn1c(-c2cccnc2[C@H](C)OC)c2c3cc(ccc31)-c1csc(n1)C[C@H](NC(=O)[C@H](C(C)C)N(C)C(=O)N1CC(N(C)C(=O)[C@@H]3CN3)C1)C(=O)N1CCC[C@H](N1)C(=O)OCC(C)(C)C2 [Compound 219]	< 5 µM	1 to 10 µM	–	–
CCn1c(-c2cccnc2[C@H](C)OC)c2c3cc(ccc31)-c1cc(O)cc(c1)C[C@H](NC(=O)[C@H](C(C)C)N(C)C(=O)N1CCN(C(=O)[C@H]3CN3)CC1)C(=O)N1CCC[C@H](N1)C(=O)OCC(C)(C)C2 [Example 177, 4-((R)-aziridine-2-carbonyl)-N-((2S)-1-(((6^3S,4S)-1^1-ethyl-2^5-hydroxy-1^2-(2-((S)-1-methoxyethyl)pyridin-3-yl)-10,10-dimethyl-5,7-dioxo-6^1,6^2,6^3,6^4,6^5,6^6-hexahydro-1^1H-8-oxa-1(5,3)-indola-6(1,3)-pyridazina-2(1,3)-benzenacycloundecaphane-4-yl)amino)-3-methyl-1-oxobutan-2-yl)-N-methylpiperazine-1-carboxamide]	< 5 µM	1 to 10 µM	–	–
CCn1c(-c2cccnc2[C@H](C)OC)c2c3cc(ccc31)-c1csc(n1)C[C@H](NC(=O)[C@H](C(C)C)N(C)C(=O)N(C)[C@H]1CCCN(C(=O)[C@H]3CN3)C1)C(=O)N1CCC[C@H](N1)C(=O)OCC(C)(C)C2 [Compound 295]	< 5 µM	1 to 10 µM	–	–
CCn1c(-c2cccnc2[C@H](C)OC)c2c3cc(ccc31)-c1cc(O)cc(c1)C[C@H](NC(=O)[C@H](C(C)C)N(C)C(=O)[C@H]1C[C@H](NC(=O)[C@@H]3CN3)C1)C(=O)N1CCC[C@H](N1)C(=O)OCC(C)(C)C2 [Compound 167]	< 5 µM	1 to 10 µM	–	–
CCn1c(-c2cccnc2[C@H](C)OC)c2c3cc(ccc31)-c1cc(O)cc(c1)C[C@H](NC(=O)[C@H](C(C)C)N1CC[C@@]3(CCN(C(=O)[C@H]4CN4)C3)C1=O)C(=O)N1CCC[C@H](N1)C(=O)OCC(C)(C)C2 [Compound 149]	< 5 µM	1 to 10 µM	–	–
CCn1c(-c2cccnc2[C@H](C)OC)c2c3cc(ccc31)-c1cccc(c1)C[C@H](NC(=O)[C@H](C(C)C)N1CC[C@@H](CN=C=NCCOC)C1)C(=O)N1CCC[C@H](N1)C(=O)OCC(C)(C)C2 [Compound 121]	< 5 µM	1 to 10 µM	–	–
CCn1c(-c2cnccc2COC)c2c3cc(ccc31)-c1cc(O)cc(c1)C[C@H](NC(=O)[C@H](C(C)C)N(C)C(=O)CN(C)C(=O)[C@H]1N[C@H]1c1ccc(OC)cc1)C(=O)N1CCC[C@H](N1)C(=O)OCC(C)(C)C2 [Compound 93]	–	–	< 5 µM	> 10 µM
CCn1c(-c2cccnc2[C@H](C)OC)c2c3cc(ccc31)-c1cc(O)cc(c1)C[C@H](NC(=O)[C@H](C(C)C)N(C)C(=O)[C@@H]1CCCN(C(=O)[C@@H]3CN3)C1)C(=O)N1CCC[C@H](N1)C(=O)OCC(C)(C)C2 [Compound 238]	< 5 µM	1 to 10 µM	–	–
CCn1c(-c2cnccc2COC)c2c3cc(ccc31)-c1cccc(c1)C[C@H](NC(=O)[C@H](C(C)C)N(C)C(=O)CCN=C=NC1(COC)CC1)C(=O)N1CCC[C@H](N1)C(=O)OCC(C)(C)C2 [72 A and B]	< 5 µM	1 to 10 µM	–	–
CCN1C[C@@H]1C(=O)N(C)CC(=O)N(C)[C@H](C(=O)N[C@H]1Cc2cc(O)cc(c2)-c2ccc3c(c2)c(c(-c2cccnc2[C@H](C)OC)n3CC)CC(C)(C)COC(=O)[C@@H]2CCCN(N2)C1=O)C1CCCC1 (some centres unmarked) [Compound 309]	< 5 µM	0.01 to 0.1 µM	–	–
CCn1c(-c2cccnc2[C@H](C)OC)c2c3cc(ccc31)-c1cc(O)cc(c1)C[C@H](NC(=O)[C@H](C(C)C)N(C)C(=O)N1CCN(C(=O)[C@@H]3CN3)CC1=O)C(=O)N1CCC[C@H](N1)C(=O)OCC(C)(C)C2 [Compound 205]	< 5 µM	> 10 µM	–	–
CCn1c(-c2cccnc2[C@H](C)OC)c2c3cc(ccc31)-c1cc(O)cc(c1)C[C@H](NC(=O)[C@H](C(C)C)N(C)C(=O)CN(C)C(=O)[C@@H]1N[C@@H]1C1COC1)C(=O)N1CCC[C@H](N1)C(=O)OCC(C)(C)C2 [Compound 281]	–	–	< 5 µM	0.1 to 1 µM
CCn1c(-c2cccnc2[C@H](C)OC)c2c3cc(ccc31)-c1cc(O)cc(c1)C[C@H](NC(=O)[C@H](C(C)C)N(C)C(=O)[C@]1(F)CCN(C(=O)[C@H]3CN3)C1)C(=O)N1CCC[C@H](N1)C(=O)OCC(C)(C)C2 [Compound 311]	< 5 µM	0.1 to 1 µM	–	–
CCn1c(-c2cnccc2COC)c2c3cc(ccc31)-c1cc(O)cc(c1)C[C@H](NC(=O)[C@H](C(C)C)N(C)C(=O)CCNC1=NCCO1)C(=O)N1CCC[C@H](N1)C(=O)OCC(C)(C)C2 [Compound 120]	< 5 µM	1 to 10 µM	–	–
CCn1c(-c2cccnc2[C@H](C)OC)c2c3cc(ccc31)-c1cc(O)cc(c1)C[C@H](NC(=O)[C@H](C(C)C)N(C)C(=O)N1CC[C@H](N(C)C(=O)[C@@H]3CN3)C1)C(=O)N1CCC[C@H](N1)C(=O)OCC(C)(C)C2 [Compound 255]	< 5 µM	1 to 10 µM	–	–
CCn1c(-c2cccnc2[C@H](C)OC)c2c3cc(ccc31)-c1cc(O)cc(c1)C[C@H](NC(=O)[C@H](C(C)C)N(C)C(=O)N1CC[C@H](N(C)C(=O)[C@H]3CN3)C1)C(=O)N1CCC[C@H](N1)C(=O)OCC(C)(C)C2 [Compound 254]	< 5 µM	> 10 µM	–	–
CCn1c(-c2cccnc2[C@H](C)OC)c2c3cc(ccc31)-c1cc(O)cc(c1)C[C@H](NC(=O)[C@H](C(C)C)N(C)C(=O)CN(C)S(=O)(=O)[C@H]1CN1C)C(=O)N1CCC[C@H](N1)C(=O)OCC(C)(C)C2 (single isomer, unassigned) [Compound 91]	< 5 µM	1 to 10 µM	–	–
CCn1c(-c2cccnc2[C@H](C)OC)c2c3cc(ccc31)-c1csc(n1)C[C@H](NC(=O)[C@H](C(C)C)N(C)C(=O)N(C)C1CN(C(=O)[C@H]3CN3)C1)C(=O)N1CCC[C@H](N1)C(=O)OCC(C)(C)C2 [Compound 220]	< 5 µM	1 to 10 µM	–	–
CCn1c(-c2cccnc2[C@H](C)OC)c2c3cc(ccc31)-c1cc(O)cc(c1)C[C@H](NC(=O)[C@H](C(C)C)N(C)C(=O)N1CCN(C(=O)[C@H]3CN3)CC1=O)C(=O)N1CCC[C@H](N1)C(=O)OCC(C)(C)C2 [Compound 183]	< 5 µM	> 10 µM	–	–
CCn1c(-c2cccnc2[C@H](C)OC)c2c3cc(ccc31)-c1cc(O)cc(c1)C[C@H](NC(=O)[C@H](C(C)C)N(C)C(=O)CN(C)C(=O)[C@H]1N[C@@H]1C1COC1)C(=O)N1CCC[C@H](N1)C(=O)OCC(C)(C)C2 [Compound 284]	–	–	< 5 µM	1 to 10 µM
